According to ChEMBL document CHEMBL4706696, “3-Functionalised benzenesulphonamide based 1,3,4-oxadiazoles as selective carbonic anhydrase XIII inhibitors: Design, synthesis and biological evaluation” (Bioorg Med Chem Lett, 2021):

What follows are compounds tested against Carbonic anhydrase 13 (Homo sapiens, UniProt Q8N1Q1) (assay: Inhibition of recombinant human carbonic anhydrase 13 by stopped flow CO2 hydrase assay).
Chain of Carbonic anhydrase 13 (Q8N1Q1 whole entry): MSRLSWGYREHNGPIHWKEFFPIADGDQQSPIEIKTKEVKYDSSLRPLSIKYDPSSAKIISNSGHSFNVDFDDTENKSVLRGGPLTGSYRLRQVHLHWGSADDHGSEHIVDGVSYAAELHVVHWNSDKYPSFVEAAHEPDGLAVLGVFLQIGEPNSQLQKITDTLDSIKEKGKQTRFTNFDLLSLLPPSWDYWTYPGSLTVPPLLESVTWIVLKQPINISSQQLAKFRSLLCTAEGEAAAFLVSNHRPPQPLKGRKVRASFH

Structure (SMILES)	Ki [µM]
Cc1ccc(-c2nnc(-c3ccc(C#N)cc3)o2)cc1S(N)(=O)=O	> 10
Cc1ccc(-c2nnc(-c3ccccc3)o2)cc1S(N)(=O)=O	> 10
Cc1ccc(-c2nnc(-c3ccc(Cl)cc3Cl)o2)cc1S(N)(=O)=O	> 10
COc1ccc(-c2nnc(-c3ccc(OC)c(S(N)(=O)=O)c3)o2)c(OC)c1	> 10
COc1ccc(-c2nnc(-c3ccccc3)o2)cc1S(N)(=O)=O	> 10
Cc1ccc(-c2nnc(-c3cccc([N+](=O)[O-])c3)o2)cc1S(N)(=O)=O	> 10
COc1ccc(-c2nnc(-c3ccc(C)c(S(N)(=O)=O)c3)o2)c(OC)c1	> 10
Cc1ccc(-c2nnc(-c3ccc(Cl)cc3)o2)cc1S(N)(=O)=O	> 10
COc1ccc(-c2nnc(-c3cccc([N+](=O)[O-])c3)o2)cc1S(N)(=O)=O	> 10

These compounds were tested against Carbonic anhydrase 9 (Homo sapiens, UniProt Q16790) (assay: Inhibition of recombinant human carbonic anhydrase 9 by stopped flow CO2 hydrase assay).

Structure (SMILES)	Ki [µM]
COc1ccc(OC)c(-c2nnc(-c3cccc(S(N)(=O)=O)c3)o2)c1	0.0768
Cc1ccc(-c2nnc(-c3ccc(C#N)cc3)o2)cc1S(N)(=O)=O	> 10
NS(=O)(=O)c1cccc(-c2nnc(-c3cccs3)o2)c1	0.0853
Cc1ccc(-c2nnc(-c3ccccc3)o2)cc1S(N)(=O)=O	> 10
COc1ccc(-c2nnc(-c3cccc(S(N)(=O)=O)c3)o2)c(OC)c1	0.0822
Cc1ccc(-c2nnc(-c3ccc(Cl)cc3Cl)o2)cc1S(N)(=O)=O	> 10
NS(=O)(=O)c1cccc(-c2nnc(-c3cccc([N+](=O)[O-])c3)o2)c1	0.044
COc1ccc(-c2nnc(-c3ccc(OC)c(S(N)(=O)=O)c3)o2)c(OC)c1	> 10
NS(=O)(=O)c1cccc(-c2nnc(-c3ccccc3)o2)c1	0.108
NS(=O)(=O)c1cccc(-c2nnc(-c3ccc(Cl)cc3Cl)o2)c1	0.0763
N#Cc1ccc(-c2nnc(-c3cccc(S(N)(=O)=O)c3)o2)cc1	0.0763
NS(=O)(=O)c1cccc(-c2nnc(-c3ccc([N+](=O)[O-])cc3)o2)c1	0.0571
COc1ccc(-c2nnc(-c3ccccc3)o2)cc1S(N)(=O)=O	> 10
NS(=O)(=O)c1cccc(-c2nnc(-c3ccc(Cl)cc3)o2)c1	0.0545
COc1cc(-c2nnc(-c3cccc(S(N)(=O)=O)c3)o2)cc(OC)c1OC	0.0683
Cc1ccc(-c2nnc(-c3cccc([N+](=O)[O-])c3)o2)cc1S(N)(=O)=O	> 10
COc1ccc(-c2nnc(-c3ccc(C)c(S(N)(=O)=O)c3)o2)c(OC)c1	> 10
Cc1ccc(-c2nnc(-c3ccc(Cl)cc3)o2)cc1S(N)(=O)=O	> 10
COc1ccc(-c2nnc(-c3cccc([N+](=O)[O-])c3)o2)cc1S(N)(=O)=O	> 10

These compounds were tested against Carbonic anhydrase 2 (Homo sapiens, UniProt P00918) (assay: Inhibition of recombinant human carbonic anhydrase 2 by stopped flow CO2 hydrase assay).

Structure (SMILES)	Ki [µM]
Cc1ccc(-c2nnc(-c3ccc(C#N)cc3)o2)cc1S(N)(=O)=O	> 10
Cc1ccc(-c2nnc(-c3ccccc3)o2)cc1S(N)(=O)=O	> 10
Cc1ccc(-c2nnc(-c3ccc(Cl)cc3Cl)o2)cc1S(N)(=O)=O	> 10
COc1ccc(-c2nnc(-c3ccc(OC)c(S(N)(=O)=O)c3)o2)c(OC)c1	> 10
COc1ccc(-c2nnc(-c3ccccc3)o2)cc1S(N)(=O)=O	> 10
Cc1ccc(-c2nnc(-c3cccc([N+](=O)[O-])c3)o2)cc1S(N)(=O)=O	> 10
COc1ccc(-c2nnc(-c3ccc(C)c(S(N)(=O)=O)c3)o2)c(OC)c1	> 10
Cc1ccc(-c2nnc(-c3ccc(Cl)cc3)o2)cc1S(N)(=O)=O	> 10
COc1ccc(-c2nnc(-c3cccc([N+](=O)[O-])c3)o2)cc1S(N)(=O)=O	> 10

These compounds were tested against Carbonic anhydrase 1 (Homo sapiens, UniProt P00915) (assay: Inhibition of recombinant human carbonic anhydrase 1 by stopped flow CO2 hydrase assay).
Chain of Carbonic anhydrase 1 (P00915 whole entry): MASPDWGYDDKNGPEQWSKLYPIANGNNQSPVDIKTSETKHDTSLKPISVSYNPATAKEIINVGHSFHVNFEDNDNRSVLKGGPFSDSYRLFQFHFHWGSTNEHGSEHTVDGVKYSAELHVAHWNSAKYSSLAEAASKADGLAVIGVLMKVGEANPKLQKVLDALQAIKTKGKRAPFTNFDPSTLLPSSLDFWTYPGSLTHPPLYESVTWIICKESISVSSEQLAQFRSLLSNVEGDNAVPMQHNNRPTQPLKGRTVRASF

Structure (SMILES)	Ki [µM]
Cc1ccc(-c2nnc(-c3ccc(C#N)cc3)o2)cc1S(N)(=O)=O	> 10
Cc1ccc(-c2nnc(-c3ccccc3)o2)cc1S(N)(=O)=O	> 10
Cc1ccc(-c2nnc(-c3ccc(Cl)cc3Cl)o2)cc1S(N)(=O)=O	> 10
COc1ccc(-c2nnc(-c3ccc(OC)c(S(N)(=O)=O)c3)o2)c(OC)c1	> 10
COc1ccc(-c2nnc(-c3ccccc3)o2)cc1S(N)(=O)=O	> 10
Cc1ccc(-c2nnc(-c3cccc([N+](=O)[O-])c3)o2)cc1S(N)(=O)=O	> 10
COc1ccc(-c2nnc(-c3ccc(C)c(S(N)(=O)=O)c3)o2)c(OC)c1	> 10
Cc1ccc(-c2nnc(-c3ccc(Cl)cc3)o2)cc1S(N)(=O)=O	> 10
COc1ccc(-c2nnc(-c3cccc([N+](=O)[O-])c3)o2)cc1S(N)(=O)=O	> 10
